Patent US20240239794A1, “PKC-Theta Modulators” (Exscientia AI Limited, priority 2021, published 2024)
Where two headings read alike, the source gives them in different places.

Experiments:
[1] = target: Recombinant human PKC-delta (His-tagged 345-676) (Homo sapiens (Human), UniProt Q05655); assay: PKC-delta inhibition assay (HTRF KinEASE kit), PKC-theta/PKC-delta selectivity; type: biochemical; settings: ratio; for PKC-theta/PKC-delta selectivity: PKC-theta over PKC-delta, HTRF assays; for PKC-theta/PKC-delta selectivity (binned): binned A to G
Sequence of Recombinant human PKC-delta (His-tagged 345-676) (Q05655 345-676): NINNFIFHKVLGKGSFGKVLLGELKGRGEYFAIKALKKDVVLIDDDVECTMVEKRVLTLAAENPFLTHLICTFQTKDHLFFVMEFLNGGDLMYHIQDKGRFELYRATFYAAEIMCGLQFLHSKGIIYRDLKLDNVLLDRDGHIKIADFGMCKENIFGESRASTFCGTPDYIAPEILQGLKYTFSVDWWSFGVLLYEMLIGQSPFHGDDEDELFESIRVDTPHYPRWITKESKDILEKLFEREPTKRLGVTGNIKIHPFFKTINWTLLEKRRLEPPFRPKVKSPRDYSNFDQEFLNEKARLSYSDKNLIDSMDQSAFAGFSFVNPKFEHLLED
Method: (§1) PKC-theta and PKC-delta biochemical activities were measured using the PKC-theta HTRF KinEASEkit kit, according to manufacturer's instructions (Cisbio, catalogue number 61ST1PEJ). Briefly, the kinase buffer component of the kit was supplemented with 10 mM MgCl2, 1 mM DTT and 0.1% Tween 20. For the PKC-theta assay, STK substrate and ATP were added to provide a final assay concentration of 525 nM and 6.5 μM, respectively. For the PKC-delta assay, STK substrate and ATP were added to provide a final assay concentration of 243 nM and 5.7 μM, respectively. The streptavidin_XL665 and STK antibody-cryptate detection reagents were mixed according to the manufacturer's instructions. Test compounds were diluted in DMSO in a series of 10 semi-log step doses; 10 nL of each compound dose were dispensed in 384 well plates. Recombinant human PKC-theta (His-tagged 362-706) or PKC-delta (His-tagged 345-676) was diluted into kinase buffer to provide a final assay concentration of 10 ng/ml and added to the test compound for 30 minutes on ice. The reaction was started by addition of the substrate and ATP and incubated at 25° C. for 30 minutes or 20 minutes for the PKC-theta and PKC-delta assays, respectively. The detection reagents were added, and the plate was incubated in the dark for 2 hours. Fluorescence was measured on an Envision 2103 plate reader with optical setup for […] in the HTRF mode. The ratio of acceptor and donor emission signals was calculated for each well. Percent inhibition values were calculated from the HTRF ratios at different doses and fitted to a 4-parameter logistic curve to determine IC50 values (see Table 1).

[2] = target: Recombinant human PKC-theta (His-tagged 362-706) (Homo sapiens (Human), UniProt Q04759); assay: PKC-theta inhibition assay (HTRF KinEASE kit); type: biochemical; settings: ATP 6.5 μM
Sequence of Recombinant human PKC-theta (His-tagged 362-706) (Q04759 362-706): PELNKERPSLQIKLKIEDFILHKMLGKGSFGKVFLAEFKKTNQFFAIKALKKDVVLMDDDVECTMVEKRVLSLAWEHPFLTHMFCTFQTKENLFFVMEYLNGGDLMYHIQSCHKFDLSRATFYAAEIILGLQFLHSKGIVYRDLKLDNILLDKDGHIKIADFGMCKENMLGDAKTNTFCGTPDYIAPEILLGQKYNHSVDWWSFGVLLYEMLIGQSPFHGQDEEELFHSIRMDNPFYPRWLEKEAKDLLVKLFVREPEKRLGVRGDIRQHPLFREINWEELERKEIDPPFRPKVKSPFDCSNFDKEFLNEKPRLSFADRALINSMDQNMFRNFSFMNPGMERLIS
Method: as §1

[3] = system: IL-2 secretion by human effector memory T cells (TEM); assay: Effector memory T cells IL-2 release assay; type: cell-based; settings: T-cell, human CD4+ TEM cells, CD3/CD28 bead stimulation, 24 h
Method: Test compound-mediated inhibition of NFκB signalling in T cells was assessed by quantification of the IL-2 secretion by human effector memory T cells (TEM) upon treatment and stimulation. Human TEM cells were isolated from buffy coats of healthy donors obtained from the French blood bank. First, peripheral blood mononuclear cells (PBMC) were purified from buffy coats diluted 1:1 with DPBS (Gibco, cat #14190-094) by Pancoll (PAN BIOTECH, cat #P04-60500) density gradient centrifugation at 400×g for 20 minutes. TEM cells were further enriched by negative immuno-magnetic cell sorting using a human CD4+ Effector Memory T Cell Isolation Kit (Miltenyi, cat #130-094-125) according to the manufacturer's instructions. Aliquots of 3×10E6 purified TEM cells were kept frozen in Cryo-SFM medium (PromoCell, cat #C-29912) in gas phase nitrogen until used. Cell purity was verified by flow cytometry analysis of 200 000 PFA-fixed cells previously labelled with monoclonal antibodies anti-CD4-PerCP-Cy5.5 (BD Pharmigen, cat #332772), anti-CD8-V500 (BD Biosciences, cat #561617), anti-CD14-Pacific Blue (Biolegend, cat #325616), anti-CD45 RA-FITC (Biolegend, cat #304106) and anti-CCR7-APC (in CD4+ Effector Memory T Cell Isolation Kit, Miltenyi, cat #130-094-125).
TEM cells were resuspended in complete RPMI medium composed of: RPMI 1640 (Gibco, cat #31870-025), 10% heat inactivated fetal bovine serum (Sigma, cat #F7524), 2 mM GlutaMAX (Gibco, cat #35050-038), 1 mM sodium pyruvate 100× (Gibco, cat #11360-039), 1% MEM non-essential amino acids solution (Gibco, cat #11140-035) and 100 U/mL penicillin, 100 µg/mL streptomycin (Sigma-Aldrich, cat #11074440001). 5,000 cells per well were plated onto flat clear bottom 384 well plates (Corning, cat #3770). 5,000 Dynabeads Human T-Activator CD3/CD28 (Gibco, cat #11132D) were added to each well for cell stimulation. Finally, 10 doses of test compound, originally prepared in DMSO by serial semi-log step dilution, were also added to cells in triplicate wells. Final DMSO concentration in wells was 0.1% in a total volume of 100 µL complete medium. Plates were incubated for 24 h at 37° C. in 5% CO2 atmosphere. After incubation, cell suspensions were centrifuged at 400×g and culture supernatants were recovered and stored at −80° C. Cell viability was assessed by flow cytometry after staining the cells with Fixable Viability Dye eFluor 780 (Invitrogen, cat #65-0865-14). IL-2 levels were determined in cell supernatants using an HTRF human IL-2 detection kit (Cisbio, cat #62HIL02PEH). IL-2 data at the different compound doses were fitted to a 4-parameter logistic curve to determine IC50 values, corresponding to the compound concentration leading to 50% reduction of the maximal IL-2 levels observed in each experiment. Viability data were analysed similarly to exclude cytotoxicity as a cause of IL-2 decrease (see Table 1).

[4] = binned A to H, read-out: PKC-theta HTRF pIC50 (binned) (converted)
[5] = binned A to G, read-out: PKC-theta IL2 pIC50 (binned) (converted)
[6] = read-out: PKC-theta IL2 pIC50 (converted)
[7] = read-out: PKC-theta HTRF pIC50 (converted)

PKC-theta/PKC-delta selectivity [1]	PKC-theta/PKC-delta selectivity (binned) [1]	PKC-theta HTRF pIC50 [2]	IC50 [2, 4] [nM]	IC50 [3, 5] [nM]	IC50 [3, 6] [nM]	IC50 [2, 7] [nM]	SMILES
14	D (D means a ratio of between 10 and 20)	8.3	3.16 to 10	100 to 316	126	–	CC1(C)C(=O)Nc2nccc(-c3nn([C@H]4CCNC[C@@H]4F)c4ccccc34)c21 (racemic) [Example 36]
5	E (E means a ratio of between 5 and 10)	–	31.6 to 100	> 1000	1580	50.1	C[C@@]1(O)C(=O)Nc2nccc(-c3nn(C4CCNCC4)c4ccccc34)c21 (single isomer, unassigned) [Example 27]
15	D (D means a ratio of between 10 and 20)	–	1 to 3.16	10 to 31.6	31.6	2	C[C@]1(O)C(=O)Nc2nccc(-c3nn(C4CCNCC4)c4ccccc34)c21 (single isomer, unassigned) [Example 28]
24	C (C means a ratio of between 20 and 30)	–	≤ 1	31.6 to 100	39.8	0.398	C[C@@]1(O)C(=O)Nc2nccc(-c3nn(CC4CCNCC4)c4ccccc34)c21 (single isomer, unassigned) [Example 29]
22	C (C means a ratio of between 20 and 30)	8.9	1 to 3.16	31.6 to 100	39.8	–	CC1(C)C(=O)Nc2nccc(-c3nn(C[C@@]4(C)COCCN4)c4ccccc34)c21 (single isomer, unassigned) [Example 31]
17	D (D means a ratio of between 10 and 20)	–	≤ 1	10 to 31.6	15.8	0.2	C[C@@]1(O)C(=O)Nc2nccc(-c3nn(C4(CC#N)CCC4)c4ccccc34)c21 (single isomer, unassigned) [Example 40]
–	–	–	10 to 31.6	316 to 1000	398	25.1	C[C@@]1(O)C(=O)Nc2nccc(-c3nn(C4CCNCC4)c4cc(C(F)(F)F)ccc34)c21 (single isomer, unassigned) [Example 42]
11	D (D means a ratio of between 10 and 20)	–	3.16 to 10	316 to 1000	316	7.94	C[C@@]1(O)C(=O)Nc2nccc(-c3nn(C4CCNCC4)c4c(OC(F)F)cccc34)c21 (single isomer, unassigned) [Example 43]
12	D (D means a ratio of between 10 and 20)	–	≤ 1	10 to 31.6	25.1	0.631	C[C@@]1(O)C(=O)Nc2nccc(-c3nn(CC4(F)CCNCC4)c4ccccc34)c21 (single isomer, unassigned) [Example 47]
33	B (B means a ratio of between 30 and 50)	–	100 to 316	316 to 1000	794	316	C[C@@]1(O)C(=O)Nc2nccc(-c3nn(C4(CC#N)COC4)c4ccccc34)c21 (single isomer, unassigned) [Example 48]
3	F (F means a ratio of between 1 and 5)	–	3.16 to 10	100 to 316	316	6.31	C[C@@]1(O)C(=O)Nc2nccc(-c3nn(C4(CC#N)CNC4)c4ccccc34)c21 (single isomer, unassigned) [Example 49]
11	D (D means a ratio of between 10 and 20)	–	≤ 1	10 to 31.6	20	0.794	C[C@@]1(O)C(=O)Nc2nccc(-c3nn([C@@H]4CCNC[C@@H]4F)c4ccccc34)c21 (single isomer, unassigned) [Example 50]
18	D (D means a ratio of between 10 and 20)	–	≤ 1	10 to 31.6	10	0.501	C[C@@]1(O)C(=O)Nc2nccc(-c3nn(C4(CC#N)CCC4)c4c(F)cccc34)c21 (single isomer, unassigned) [Example 58]
11	D (D means a ratio of between 10 and 20)	–	≤ 1	10 to 31.6	20	0.631	C[C@@]1(O)C(=O)Nc2nccc(-c3nn(C4(CC#N)CCC4)c4cc(F)ccc34)c21 (single isomer, unassigned) [Example 59]
8	E (E means a ratio of between 5 and 10)	–	3.16 to 10	100 to 316	100	3.98	C[C@@]1(O)C(=O)Nc2nccc(-c3nn(C4(CC#N)CCC4)c4ncccc34)c21 (single isomer, unassigned) [Example 60]
28	C (C means a ratio of between 20 and 30)	–	1 to 3.16	31.6 to 100	79.4	2.51	C[C@]1(O)C(=O)Nc2nccc(-c3nn(C4(CC#N)CCC4)c4cc(C(F)(F)F)ccc34)c21 (single isomer, unassigned) [Example 64]
28	C (C means a ratio of between 20 and 30)	–	31.6 to 100	316 to 1000	398	50.1	CC[C@]1(C)C(=O)Nc2nccc(-c3nn([C@H]4CCNC4)c4ccccc34)c21 (single isomer, unassigned) [Example 65]
46	B (B means a ratio of between 30 and 50)	–	3.16 to 10	–	–	6.31	CC[C@]1(C)C(=O)Nc2nccc(-c3nn([C@H]4CCNC[C@H]4F)c4cc(F)ccc34)c21 (single isomer, unassigned) [Example 102]
7	E (E means a ratio of between 5 and 10)	–	–	–	–	–	CC1(O)C(=O)Nc2nccc(-c3cn([C@@H]4CCNC4)c4ccccc34)c21 (stereo partly shown) [Example 17]
